Source: ChEMBL document CHEMBL1122681, “(Acylaryloxy)acetic acid diuretics. 5. [(2-Alkyl- and 2,2-disubstituted-1,3-dioxo-5-indanyl)oxy]acetic acids” (J Med Chem, 1984)

Key:
[1] = system: Pan troglodytes; experiment: Compound was evaluated for diuretic activity in chimpanzee measured as clearance of […] and urate after peroral administration of 5 mg/kg; type: functional, Urine; conditions: route oral
[2] = system: Canis familiaris; experiment: Compound was evaluated for diuretic activity, in female mongrel dogs by measuring amount of K+ in urine after iv administration of 5 mg/kg (control/compound treatment results) Control = 13; type: functional, Canis lupus familiaris
[3] = system: Canis familiaris; experiment: Compound was evaluated for diuretic activity, in female mongrel dogs by measuring volume of urine, after iv administration of 5 mg/kg (control/compound treatment results) Control = 2; type: ADME, organism-based, Canis lupus familiaris; parameters: dose 5 mg/kg, route intravenous; conditions: dog, in vivo
[4] = system: Pan troglodytes; experiment: Compound was evaluated for diuretic activity in chimpanzee measured as increase in the number of microequivalents of K+ /min at 1 mg/kg; type: functional, Urine
[5] = system: Canis familiaris; experiment: Compound was evaluated for diuretic activity, in female mongrel dogs by measuring amount of Na+ in urine after iv administration of 5 mg/kg (control/compound treatment results) Control = 59; type: functional, Canis lupus familiaris
[6] = system: Pan troglodytes; experiment: Compound was evaluated for diuretic activity in chimpanzee measured as increase in volume of urine at 5 mg/kg; type: functional
[7] = system: Pan troglodytes; experiment: Compound was evaluated for diuretic activity in chimpanzee measured as increase in the number of microequivalents of Cl- electrolyte/min at 1 mg/kg; type: functional, Urine
[8] = system: Pan troglodytes; experiment: Compound was evaluated for diuretic activity in chimpanzee measured as increase in the number of microequivalents of Na+ /min at 5 mg/kg; type: functional, Urine
[9] = system: Pan troglodytes; experiment: Compound was evaluated for diuretic activity in chimpanzee measured as increase in the number of microequivalents of K+ /min at 5 mg/kg; type: functional, Urine
[10] = system: Canis familiaris; experiment: Compound was evaluated for diuretic activity, in female mongrel dogs by measuring amount of Cl- in urine after iv administration of 5 mg/kg (control/compound treatment results) Control = 5; type: functional, Canis lupus familiaris
[11] = system: Pan troglodytes; experiment: Compound was evaluated for diuretic activity in chimpanzee measured as increase in volume of urine at 1 mg/kg; type: functional
[12] = system: Pan troglodytes; experiment: Compound was evaluated for diuretic activity in chimpanzee measured as clearance of […] and urate after intra venous administration of 5 mg/kg.; type: functional, Urine
[13] = system: Pan troglodytes; experiment: Compound was evaluated for diuretic activity in chimpanzee measured as increase in the number of microequivalents of Cl- /min at 5 mg/kg; type: functional, Urine
[14] = system: Pan troglodytes; experiment: Compound was evaluated for diuretic activity in chimpanzee measured as increase in the number of microequivalents of Na+ /min at 1 mg/kg; type: functional, Urine
[15] = system: Rattus norvegicus; experiment: Compound was evaluated for diuretic activity administered orally in female rats measured as milliequivalents of K+x 100 / cage at 81 mg/kg; type: functional, Urine; conditions: route oral
[16] = system: Rattus norvegicus; experiment: Compound was evaluated for diuretic activity administered orally in female rats measured as milliequivalents of Na+x 100 / cage at 9 mg/kg; type: functional, Urine; conditions: route oral
[17] = system: Canis familiaris; experiment: Compound was evaluated for diuretic activity, administered orally in female mongrel dogs (5 mg/kg) measured as milliequivalents of Cl-; type: functional, Canis lupus familiaris, Urine
[18] = system: Rattus norvegicus; experiment: Compound was evaluated for diuretic activity administered orally in female rats measured as milliequivalents of Na+x 100 / cage at 27 mg/kg; type: functional, Urine; conditions: route oral
[19] = system: Rattus norvegicus; experiment: Compound was evaluated for diuretic activity administered orally in female rats measured as milliequivalents of Na+x 100 / cage at 3 mg/kg; type: functional, Urine; conditions: route oral
[20] = volume of urine at 3 mg/kg; type: ADME, organism-based; parameters: dose 3 mg/kg; conditions: in vivo
[21] = volume of urine at 9 mg/kg; type: ADME, organism-based; parameters: dose 9 mg/kg; conditions: in vivo
[22] = system: Rattus norvegicus; experiment: Compound was evaluated for diuretic activity administered orally in female rats measured as milliequivalents of K+x 100 / cage at 27 mg/kg; type: functional, Urine; conditions: route oral
[23] = system: Rattus norvegicus; experiment: Compound was evaluated for diuretic activity administered orally in female rats measured as milliequivalents of Cl-x 100 / cage at 3 mg/kg; type: functional, Urine; conditions: route oral
[24] = system: Rattus norvegicus; experiment: Compound was evaluated for diuretic activity administered orally in female rats measured as milliequivalents of K+x 100 / cage at 3 mg/kg; type: functional, Urine; conditions: route oral
[25] = system: Rattus norvegicus; experiment: Compound was evaluated for diuretic activity administered orally in female rats measured as milliequivalents of Cl-x 100 / cage at 81 mg/kg; type: functional, Urine; conditions: route oral
[26] = system: Canis familiaris; experiment: Compound was evaluated for diuretic activity, in female mongrel dogs by measuring amount of K+ in urine after iv administration of 5 mg/kg (control/compound treatment results) Control = 11; type: functional, Canis lupus familiaris
[27] = system: Canis familiaris; experiment: Compound was evaluated for diuretic activity, in female mongrel dogs by measuring amount of Na+ in urine after iv administration of 5 mg/kg (control/compound treatment results) Control = 107; type: functional, Canis lupus familiaris
[28] = system: Canis familiaris; experiment: Compound was evaluated for diuretic activity, administered orally in female mongrel dogs (5 mg/kg) measured as milliequivalents of Na; type: functional, Canis lupus familiaris, Urine
[29] = volume of urine at 27 mg/kg; type: ADME, organism-based; parameters: dose 27 mg/kg; conditions: in vivo
[30] = system: Rattus norvegicus; experiment: Compound was evaluated for diuretic activity administered orally in female rats measured as milliequivalents of Na+x 100 / cage at 81 mg/kg; type: functional, Urine; conditions: route oral
[31] = system: Rattus norvegicus; experiment: Compound was evaluated for diuretic activity administered orally in female rats measured as milliequivalents of K+x 100 / cage at 9 mg/kg; type: functional, Urine; conditions: route oral
[32] = system: Canis familiaris; experiment: Compound was evaluated for diuretic activity, administered orally in female mongrel dogs (5 mg/kg) measured as milliequivalents of K; type: functional, Canis lupus familiaris, Urine
[33] = system: Pan troglodytes; experiment: Compound was evaluated for diuretic activity in chimpanzee measured as increase in the number of microequivalents of Cl- electrolyte/min at 5 mg/kg; type: functional, Urine
[34] = system: Canis familiaris; experiment: Compound was evaluated for diuretic activity, in female mongrel dogs by measuring amount of Cl- in urine after iv administration of 5 mg/kg (control/compound treatment results) Control = 62; type: functional, Canis lupus familiaris
[35] = volume of urine at 81 mg/kg; type: ADME, organism-based; parameters: dose 81 mg/kg; conditions: in vivo
[36] = organism: Canis familiaris; experiment: volume of urine in dog; type: ADME, organism-based, Canis lupus familiaris; conditions: in vivo
[37] = system: Rattus norvegicus; experiment: Compound was evaluated for diuretic activity administered orally in female rats measured as milliequivalents of Cl-+x 100 / cage at 27 mg/kg; type: functional, Urine; conditions: route oral
[38] = system: Rattus norvegicus; experiment: Compound was evaluated for diuretic activity administered orally in female rats measured as milliequivalents of Cl-x 100 / cage at 9 mg/kg; type: functional, Urine; conditions: route oral
[39] = system: Pan troglodytes; experiment: Compound was evaluated for diuretic activity in chimpanzee measured as increase in the number of microequivalents of Cl- electrolyte/min at 1.25 mg/kg; type: functional, Urine
[40] = system: Canis familiaris; experiment: Compound was evaluated for diuretic activity, in female mongrel dogs by measuring amount of K+ in urine after iv administration of 5 mg/kg (control/compound treatment results) Control = 10; type: functional, Canis lupus familiaris
[41] = system: Canis familiaris; experiment: Compound was evaluated for diuretic activity, in female mongrel dogs by measuring amount of Cl- in urine after iv administration of 5 mg/kg (control/compound treatment results) Control = 4; type: functional, Canis lupus familiaris
[42] = system: Canis familiaris; experiment: Compound was evaluated for diuretic activity, in female mongrel dogs by measuring volume of urine, after iv administration of 5 mg/kg (control/compound treatment results) Control = 1; type: ADME, organism-based, Canis lupus familiaris; parameters: dose 5 mg/kg, route intravenous; conditions: dog, in vivo
[43] = system: Pan troglodytes; experiment: Compound was evaluated for diuretic activity in chimpanzee measured as increase in the number of microequivalents of Na+ /min at 1.25 mg/kg; type: functional, Urine
[44] = system: Pan troglodytes; experiment: Compound was evaluated for diuretic activity in chimpanzee measured as increase in the number of microequivalents of K+ /min at 1.25 mg/kg; type: functional, Urine
[45] = system: Canis familiaris; experiment: Compound was evaluated for diuretic activity, in female mongrel dogs by measuring amount of Na+ in urine after iv administration of 5 mg/kg (control/compound treatment results) Control = 22; type: functional, Canis lupus familiaris
[46] = system: Pan troglodytes; experiment: Compound was evaluated for diuretic activity in chimpanzee measured as clearance of […] and urate after intravenous administration of 1.25 mg/kg; type: functional, Urine
[47] = system: Pan troglodytes; experiment: Compound was evaluated for diuretic activity in chimpanzee measured as increase in volume of urine at 1.25 mg/kg; type: functional

Compound: Cc1c(OCc2nn[nH]n2)cc2c(c1Cl)C(=O)C1(CCCC1)C2=O
- Delta C urate / delta C insulin [1]: 0.026
- Activity [2]: 27 u equiv min-1
- Urine volume [3]: 3 mL/min
- Increase [4]: 55
- Activity [5]: 193 u equiv min-1
- Increase in volume [6]: 0 mL/min
- Increase [7]: 172
- Increase [8]: 5
- Increase [9]: 2
- Activity [10]: 11 u equiv min-1
- Increase in volume [11]: 0.6 mL/min
- Delta C urate / delta C insulin [12]: 0.128
- Increase [13]: 36
- Increase [14]: 119

Compound: CC1(c2ccccc2)Cc2cc(OCC(=O)O)c(Cl)c(Cl)c2C1=O (configuration not stated) [INDACRINONE]
- Delta C urate / delta C insulin [1]: 0.332
- Activity [15]: 85
- Activity [16]: 97
- Activity [17]: 26
- Urine volume [3]: 8 mL/min
- Activity [18]: 129
- Increase [4]: 171
- Activity [19]: 86
- Urine volume [20]: 28 mL
- Increase in volume [6]: 3.6 mL/min
- Urine volume [21]: 29 mL
- Increase [7]: 2624
- Increase [8]: 409
- Activity [22]: 61
- Increase [9]: 53
- Activity [23]: 85
- Activity [24]: 32
- Activity [25]: 303
- Activity [26]: 62 u equiv min-1
- Increase in volume [11]: 14.8 mL/min
- Delta C urate / delta C insulin [12]: 0.55
- Activity [27]: 920 u equiv min-1
- Activity [28]: 12
- Urine volume [29]: 31 mL
- Activity [30]: 189
- PActivity [31]: 50
- Activity [32]: 2.2
- Increase [33]: 554
- Activity [34]: 1010 u equiv min-1
- Urine volume [35]: 35 mL
- Urine volume [36]: 267 mL
- Activity [37]: 223
- Increase [14]: 2383
- Activity [38]: 163

Compound: CCC1(CC)C(=O)c2cc(OCC(=O)O)c(C)c(C)c2C1=O
- Delta C urate / delta C insulin [1]: 0.045
- Increase in volume [6]: 0.6 mL/min
- Increase [39]: 288
- Activity [40]: 21 u equiv min-1
- Increase [8]: 103
- Increase [9]: 32
- Activity [41]: 42 u equiv min-1
- Urine volume [42]: 2 mL/min
- Increase [43]: 243
- Increase [44]: 46
- Activity [45]: 106 u equiv min-1
- Increase [33]: 120
- Delta C urate / delta C insulin [46]: 0.258
- Increase in volume [47]: 2.2 mL/min
